The text below walks through data of patent US12161741B2, “Skin gel preparation for external use” (Shiseido Company, Ltd., priority 2018, dated 2024).

The nature of this data set: Solubility of the di-chain cationic surfactant (distearyldimonium chloride) in oils. The following applies: for Dissolution of the di-chain cationic surfactant in the oil (text summary of Table 1): 1 g in 100 g oil, 24 hours at ambient temperature; for Evaluation Result (state of the solution of distearyldimonium chloride in the oil): 1 g distearyldimonium chloride mixed and heated to dissolve in 100 g of oil, at rest 24 hours at ambient temperature.

`CCCCCCCCCCC(CO)CCCCCCCC` (centres unmarked) [Octyldodecanol]: the “Dissolution of the di-chain cationic surfactant in the oil (text summary of Table 1)” value (“Dissolution” for short) is listed as “homogeneously dissolved”.
For the molecule `CC(C)CCCCCCCCCCCCCCCO` [Isostearyl alcohol], the “Dissolution” value is “homogeneously dissolved”.
As to Glyceryl diisostearate, the “Evaluation Result (state of the solution of distearyldimonium chloride in the oil)” value is “○” and the “Dissolution” value is “homogeneously dissolved”.
For the molecule `CCCCC(CC)COCC(O)CO` (centres unmarked) [Ethylhexylglycerin], the “Evaluation Result (state of the solution of distearyldimonium chloride in the oil)” value is reported as “○” and the “Dissolution” value was “homogeneously dissolved”.
On the same counts, the results for `CC(C)CCCCCCCCCCCCCCCOC(=O)CC(O)C(=O)OCCCCCCCCCCCCCCCC(C)C` (centres unmarked) [Diisostearyl malate] are “○” and “homogeneously dissolved”.
